Results on 7 molecules are retold here after ChEMBL document CHEMBL1157253, “ent-rosane and labdane diterpenoids from Sagittaria sagittifolia and their antibacterial activity against three oral pathogens” (2006).

Converted amounts (≈) assume the structure as drawn. The source made the active and inactive calls. The calls are words filed in the database; no cut-off is given here.

Common to all, as to type: functional
Assay [1] deals with Actinomyces naeslundii. Put plainly: Antibacterial activity against Actinomyces naeslundii ATCC 12104 after 1 to 2 days under anaerobic condition by serial dilution method.
In assay [2] the test system is Aggregatibacter actinomycetemcomitans. Put plainly: Antibacterial activity against Actinobacillus actinomycetemcommitans ATCC 43717 after 1 to 2 days under anaerobic condition by serial dilution method.
In assay [3] the test system is Streptococcus mutans. The assay is described as follows: Antibacterial activity against Streptococcus mutans ATCC 25175 after 1 to 2 days under anaerobic condition by serial dilution method.

Turning to `C=C[C@@]1(C)CC[C@@]2(C)[C@@H](CC=C3[C@@H]2CCC[C@]3(C)CO[C@@H]2O[C@@H](COC(C)=O)[C@H](O)[C@H]2O)C1` [SAGITTINE C], the MIC amounted to 62.5 mg/L (≈ 135 µM) in assay [1], 250 mg/L (≈ 540 µM) in assay [2] and 62.5 mg/L (≈ 135 µM) in assay [3].
Take `C=C[C@@]1(C)CC[C@@]2(C)[C@@H](CC[C@]3(O)[C@@H]2CCC[C@]3(C)C(=O)O)C1`: the outcome in assay [2] was inactive.
Consider `C=C[C@@]1(C)CC[C@@]2(C)[C@@H](CC=C3[C@@H]2CCC[C@]3(C)CO[C@@H]2O[C@@H](CO)[C@H](O)[C@H]2OC(C)=O)C1` [SAGITTINE D], for which the results for the MIC in assay [1], in assay [2] and in assay [3] were 125 mg/L (≈ 270 µM), 250 mg/L (≈ 540 µM) and 125 mg/L (≈ 270 µM), respectively.
With `C=C[C@@]1(C)CC[C@@]2(C)[C@@H](CC=C3[C@@H]2CCC[C@]3(C)CO[C@@H]2O[C@@H](COC(C)=O)[C@H](OC(C)=O)[C@H]2O)C1`, the outcome in assay [2] was inactive.
In the case of `C=C[C@@]1(C)CC[C@@]2(C)[C@@H](CC=C3[C@@H]2CCC[C@]3(C)CO[C@@H]2O[C@@H](COC(C)=O)[C@H](O)[C@H]2OC(C)=O)C1` [SAGITTINE E], the MIC in assay [1] is 62.5 mg/L (≈ 124 µM); in assay [2], above 250 mg/L; in assay [3], above 250 mg/L.
As for `C=C[C@@]1(C)CC[C@@]2(C)[C@@H](CC=C3[C@@H]2CCC[C@]3(C)CO[C@@H]2O[C@@H](CO)[C@H](O)[C@H]2O)C1` [SAGITTINE B], the MIC in assay [1] amounted to 125 mg/L (≈ 297 µM); in assay [2], 250 mg/L (≈ 594 µM); in assay [3], 62.5 mg/L (≈ 149 µM).
For `C=C[C@@]1(C)CC[C@@]2(C)[C@@H](CC=C3[C@@H]2CCC[C@]3(C)C(=O)O)C1` [SAGITTINE A] the same measures were 62.5 mg/L (≈ 207 µM), above 250 mg/L and 62.5 mg/L (≈ 207 µM).
